Test results taken from ChEMBL document CHEMBL1201862, “PubChem BioAssay data set” (2004).
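Assay format: 96-well plates, 48-hour exposure. The concentration for 50% growth inhibition is given as GI50.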 Activity calls are given as the source filed them. Cut-off read from the data, not from the text of the source: active = GI50 up to about 1.1 µM and inactive = higher.

How the values were obtained:
Test in all cases: NCI-60 cell line screen, 48 h
[1] = system: A549
[2] = system: CCRF-CEM
[3] = system: HL-60
[4] = system: HOP-62
[5] = system: HT-29
[6] = system: K562
[7] = system: LOX IMVI
[8] = system: Malme-3M
[9] = system: NCI-H23
[10] = system: OVCAR-4
[11] = system: RPMI-8226
[12] = system: RXF 393
[13] = system: SF-295
[14] = system: SF-539
[15] = system: SK-MEL-2
[16] = system: SNB-75
[17] = system: SW-620
[18] = system: ACHN
[19] = system: U-251
[20] = system: NCI-H522

Measured: GI50

CCCSc1nc(COC(=O)NC)c(COC(=O)NC)n1C
inactive: [1] > 100 µM | [2] 20.7 µM | [3] 43.9 µM | [4] > 100 µM | [5] > 100 µM | [6] 31.4 µM | [7] > 100 µM | [8] > 100 µM | [9] > 78.5 µM | [10] > 100 µM | [11] 42 µM | [12] 37.4 µM | [13] > 100 µM | [14] > 100 µM | [15] > 100 µM | [16] > 91.2 µM | [17] > 95.7 µM

Cc1cc(O)nc(NN2C(Cl)C(=O)C2c2cccc([N+](=O)[O-])c2)n1 (configuration not stated)
inactive: [1] 76 µM | [18] 29.2 µM | [2] 3.52 µM | [3] 13.5 µM | [4] 31.4 µM | [5] 19.6 µM | [6] 18.3 µM | [7] 12.3 µM | [9] 20.7 µM | [10] 23.6 µM | [11] 13.7 µM | [12] 10 µM | [15] 19 µM | [16] 28 µM | [17] 35.1 µM | [19] 20 µM

C/C=C/C(C#N)O[Si](C)(C)C (configuration not stated)
inactive: [1] > 100 µM | [18] > 100 µM | [3] > 100 µM | [4] > 100 µM | [5] > 100 µM | [8] > 100 µM | [9] > 100 µM | [20] > 100 µM | [10] > 100 µM | [12] > 100 µM | [13] > 100 µM | [14] > 100 µM | [15] > 100 µM | [16] > 100 µM | [17] > 100 µM | [19] > 100 µM

Cc1ccc(NC(=O)/C(=N\Nc2ccc([N+](=O)[O-])cc2[N+](=O)[O-])C2C(=O)NC(=O)NC2=O)cc1
inactive: [1] 50.9 µM | [18] 23.3 µM | [2] 31.8 µM | [3] 35.7 µM | [4] 27.5 µM | [5] 49.5 µM | [6] 26.2 µM | [7] > 100 µM | [8] > 100 µM | [9] > 100 µM | [20] > 100 µM | [10] 65.5 µM | [11] 70 µM | [12] 48.9 µM | [13] 46.1 µM | [14] 17.9 µM | [16] 26.7 µM | [17] 45.7 µM | [19] 38.6 µM

O=C1c2ccccc2C(=O)c2cc(/N=N/c3c(O)ccc4ccccc34)ccc21
inactive: [1] > 100 µM | [18] > 100 µM | [2] > 100 µM | [4] 30.2 µM | [5] > 100 µM | [6] > 100 µM | [7] > 100 µM | [8] > 100 µM | [9] > 100 µM | [20] > 100 µM | [10] > 100 µM | [11] > 100 µM | [12] > 100 µM | [13] > 100 µM | [15] > 100 µM | [16] > 100 µM | [17] > 100 µM | [19] 56.4 µM

CCOC(=O)c1ccc(C(=O)C(C(C)=O)C(=O)OC(C)(C)C)[nH]1 (configuration not stated)
inactive: [1] > 100 µM | [18] > 100 µM | [3] > 100 µM | [4] > 100 µM | [5] > 100 µM | [6] > 100 µM | [7] > 100 µM | [8] > 100 µM | [9] > 100 µM | [20] > 100 µM | [10] > 100 µM | [11] > 100 µM | [12] > 100 µM | [13] > 100 µM | [15] > 100 µM | [16] > 100 µM | [17] > 100 µM | [19] > 100 µM

O=C1c2sc(-c3ccc(F)cc3)cc2-n2cccc21
inactive: [1] 26 µM | [18] 29.9 µM | [2] 28.5 µM | [4] 17 µM | [5] 25.2 µM | [6] 10.2 µM | [7] 32.1 µM | [8] 77.3 µM | [20] 34.8 µM | [10] 28.1 µM | [11] 23.3 µM | [12] 23.5 µM | [13] 25.1 µM | [15] > 100 µM | [16] 18.4 µM | [17] 47.6 µM | [19] 16.4 µM

O=S(=O)(N/N=C/c1c(Cl)cccc1Cl)c1ccccc1
inactive: [1] > 100 µM | [2] 66.1 µM | [3] 29.9 µM | [4] > 100 µM | [5] > 100 µM | [6] > 100 µM | [7] > 100 µM | [8] > 100 µM | [9] > 100 µM | [10] > 100 µM | [11] > 100 µM | [12] 55.5 µM | [13] > 100 µM | [14] > 100 µM | [15] > 100 µM | [16] 31.3 µM | [17] > 100 µM | [19] 50.7 µM

N#CCC(=O)N/N=C1\C(=O)N(c2ccc(Cl)cc2)C(=O)C(=O)C1c1nc2ccccc2o1 (configuration not stated)
inactive: [1] > 100 µM | [18] > 100 µM | [2] > 100 µM | [3] > 100 µM | [4] > 100 µM | [5] > 100 µM | [8] > 100 µM | [9] > 100 µM | [20] > 100 µM | [10] > 100 µM | [12] > 100 µM | [13] > 100 µM | [14] > 100 µM | [15] > 100 µM | [16] > 100 µM | [17] > 100 µM | [19] > 100 µM

O=C1/C(=C/c2cccs2)N=C(c2ccccc2)N1C1Nc2cc3c(cc2S1)NC(N1C(=O)/C(=C/c2cccs2)N=C1c1ccccc1)S3 (configuration not stated)
inactive: [1] 14.6 µM | [18] 34.1 µM | [3] 2.59 µM | [4] 30.8 µM | [5] 25.3 µM | [6] 40.9 µM | [7] 15 µM | [9] 17.4 µM | [20] 13.4 µM | [10] 24.9 µM | [11] 19.8 µM | [12] 23.3 µM | [13] 60.1 µM | [14] 14 µM | [15] 18.6 µM | [16] 25.4 µM | [17] 26.9 µM | [19] 16 µM

CC1=Nc2ccccc2C12C(c1ccccc1)C(c1ccccc1)C(=O)N1c3ccccc3CC12 (configuration not stated)
inactive: [1] > 100 µM | [18] > 100 µM | [3] > 100 µM | [4] > 100 µM | [5] > 100 µM | [6] > 100 µM | [7] > 100 µM | [8] > 100 µM | [9] > 100 µM | [20] > 100 µM | [10] 19.9 µM | [11] > 100 µM | [12] > 100 µM | [13] > 100 µM | [14] > 100 µM | [15] > 100 µM | [16] 73.1 µM | [17] > 100 µM | [19] > 100 µM

CC1(C)OCC[C@@H]1[Si](C)(C)C
inactive: [1] > 100 µM | [18] 27.5 µM | [2] 26.9 µM | [5] > 100 µM | [6] 21.4 µM | [7] 56.9 µM | [8] > 100 µM | [9] 53.6 µM | [20] 15.3 µM | [10] 55.3 µM | [11] 29.6 µM | [12] 16.5 µM | [13] 90.8 µM | [14] > 100 µM | [15] > 100 µM | [16] 52.1 µM | [17] > 100 µM | [19] > 100 µM

O=c1[nH]c2cc(C(F)(F)F)ccc2nc1C(F)(F)F
inactive: [1] 32.6 µM | [18] 37.3 µM | [2] 30.8 µM | [4] 18.2 µM | [5] 36.4 µM | [6] 50.2 µM | [7] 30.8 µM | [8] 35.2 µM | [9] 27.2 µM | [20] 29.4 µM | [10] 51.5 µM | [11] 31.5 µM | [12] 20.3 µM | [13] 30 µM | [14] 25.2 µM | [15] 33.7 µM | [16] 30.2 µM | [17] 53.3 µM | [19] 42 µM

C/C(=C/c1c(C)[nH]c(=O)[nH]c1=O)C(=O)O
inactive: [1] > 1370 µM | [2] > 1370 µM | [3] > 1370 µM | [4] > 1370 µM | [5] > 1370 µM | [6] > 1370 µM | [7] > 1370 µM | [8] > 1370 µM | [9] > 1370 µM | [20] > 1370 µM | [10] > 1370 µM | [11] > 1370 µM | [12] > 1370 µM | [13] > 1370 µM | [14] > 1370 µM | [16] > 1370 µM | [17] > 1370 µM | [19] > 1370 µM

CCOC(=O)c1nc2ccccc2n(CC)c1=O
inactive: [1] > 100 µM | [18] > 100 µM | [2] > 100 µM | [3] > 100 µM | [4] > 100 µM | [5] > 100 µM | [6] > 100 µM | [7] > 100 µM | [8] > 100 µM | [9] > 100 µM | [20] > 100 µM | [10] > 100 µM | [11] > 100 µM | [12] > 100 µM | [13] > 100 µM | [14] > 100 µM | [15] > 100 µM | [17] > 100 µM | [19] > 100 µM
